Reference: patent US4347319A, “Microbiological epoxidation process” (priority 1980, dated 1982)

Columns and labels:
[1] = system: cell extract of Torulopsis sp. strain A1 NRRL-Y-11,419; assay: Oxidation of secondary alcohols to methylketone by cell extracts of yeasts; type: biochemical; conditions: methanol-grown; cell extract + NAD^+; sec. alcohol to methyl ketone; gas chromatography
[2] = system: cell extract of Pichia sp. NRRL-Y-11,328; assay: as above; type: biochemical; conditions: methanol-grown; cell extract + NAD^+; sec. alcohol to methyl ketone; gas chromatography
[3] = system: cell extract of Hansenula polymorpha ATCC 26,012; assay: as above; type: biochemical; conditions: methanol-grown; cell extract + NAD^+; sec. alcohol to methyl ketone; gas chromatography
[4] = system: purified secondary alcohol dehydrogenase from Pichia sp. NRRL Y-11,328; assay: Substrate specificity, electron acceptor and stoichiometry of purified yeast SADH; type: biochemical; conditions: examined spectrophotometrically
[5] = system: Torulopsis sp. Strain A1 (NRRLY-11,419); assay: Oxidation of sec-alcohols to ketones by cell suspensions of yeasts; type: cell-based; conditions: sec-alcohol to methyl ketone
[6] = system: Hansenula polymorpha ATCC 26012; assay: as above; type: cell-based; conditions: sec-alcohol to methyl ketone
[7] = system: Kloeckera sp. Strain A2 (NRRLY-11,420); assay: as above; type: cell-based; conditions: sec-alcohol to methyl ketone
[8] = system: cell extract of Candida utilis ATCC 26,387; assay: Oxidation of secondary alcohols to methylketone by cell extracts of yeasts; type: biochemical; conditions: methanol-grown; cell extract + NAD^+; sec. alcohol to methyl ketone; gas chromatography
Pichia sp. NRRL-Y-11328 = assay: Oxidation of sec-alcohols to ketones by cell suspensions of yeasts; type: cell-based; conditions: sec-alcohol to methyl ketone
[9] = system: Candida utilis ATCC 26387; assay: as above; type: cell-based; conditions: sec-alcohol to methyl ketone
[10] = system: Methylosinus trichosporium CRL 15 NRRL B-11,202; assay: Sec. alcohol oxidation by cell suspensions of methanol-grown cells; type: cell-based; conditions: sec. alcohol to methyl ketone
Description: (§1) In this example, the procedure of Example 1 was repeated except that a plurality of the methane-utilizing methylotrophic microorganisms of the invention were each aerobically grown in a methanol-containing nutrient medium instead of a methane-containing medium. The nutrients in the medium were the same as indicated in Example 1 except that 0.4% v/v methanol was used as the alcohol dehydrogenase enzyme inducer and major source of carbon and energy for growth. Following growth the cells were harvested and washed as described in Example 1. The resting cells of the induced methanol-grown methylotrophic microorganisms were then contacted with a […] under aerobic conditions in a buffered solution by the procedure described in Example 1.

[11] = system: Methylococcus capsulatus CRL M1 NRRL B-11,219; assay: as above; type: cell-based; conditions: sec. alcohol to methyl ketone
Description: as §1

[12] = system: Methylobacter chroococcum CRL M6 NRRL B-11,214; assay: as above; type: cell-based; conditions: sec. alcohol to methyl ketone
Description: as §1

[13] = system: Methylobacterium organophilum CRL 26 NRRL B-11,222; assay: as above; type: cell-based; conditions: sec. alcohol to methyl ketone
Description: as §1

[14] = system: Methylobacter vinelandii CRL M5Y NRRL B-11,218; assay: as above; type: cell-based; conditions: sec. alcohol to methyl ketone
Description: as §1

[15] = system: Methylocystis parvus CRL 18 NRRL B-11,204; assay: as above; type: cell-based; conditions: sec. alcohol to methyl ketone
Description: as §1

[16] = system: Methylomonas methanica CRL M4P NRRL B-11,205; assay: as above; type: cell-based; conditions: sec. alcohol to methyl ketone
Description: as §1

[17] = system: cell extract of Kloeckera sp. strain A2 NRRL-Y-11,420; assay: Oxidation of secondary alcohols to methylketone by cell extracts of yeasts; type: biochemical; conditions: methanol-grown; cell extract + NAD^+; sec. alcohol to methyl ketone; gas chromatography

**Q.** CCCC(C)O (centres unmarked) [2-Pentanol] was tested. Which “Conversion Rate” value [1] did it give?
**A.** 1.0 μmoles/hr/mg Protein

**Q.** And the “Conversion Rate” value [2]?
**A.** 1.2 μmoles/hr/mg Protein

**Q.** What about the “Conversion Rate” value [3] of the same compound?
**A.** 1.0 μmoles/hr/mg Protein

**Q.** What about the “oxidation by the purified enzyme” value [4] of the same compound?
**A.** catalyzed the oxidation

**Q.** And the “Conversion Rate” value ([5]; growth substrate Ethanol)?
**A.** 1.2 μmoles/hr/mg of protein

**Q.** And the “Conversion Rate” value ([5]; growth substrate Methanol)?
**A.** 1.0 μmoles/hr/mg of protein

**Q.** And the “Conversion Rate” value ([5]; growth substrate Methylamine)?
**A.** 0.9 μmoles/hr/mg of protein

**Q.** What about the “Conversion Rate” value ([5]; growth substrate Methylformate) of the same compound?
**A.** 1.1 μmoles/hr/mg of protein

**Q.** And the “Conversion Rate” value ([5]; growth substrate Propylamine)?
**A.** 0.62 μmoles/hr/mg of protein

**Q.** What about the “Conversion Rate” value ([6]; growth substrate Ethanol) of the same compound?
**A.** 1.1 μmoles/hr/mg of protein

**Q.** What about the “Conversion Rate” value ([6]; growth substrate Methanol) of the same compound?
**A.** 1.4 μmoles/hr/mg of protein

**Q.** What about the “Conversion Rate” value ([6]; growth substrate Methylamine) of the same compound?
**A.** 1.2 μmoles/hr/mg of protein

**Q.** What about the “Conversion Rate” value ([6]; growth substrate Methylformate) of the same compound?
**A.** 1.3 μmoles/hr/mg of protein

**Q.** What about the “Conversion Rate” value ([6]; growth substrate Propylamine) of the same compound?
**A.** 0.82 μmoles/hr/mg of protein

**Q.** And the “Conversion Rate” value ([7]; growth substrate Ethanol)?
**A.** 1.0 μmoles/hr/mg of protein

**Q.** What about the “Conversion Rate” value ([7]; growth substrate Methanol) of the same compound?
**A.** 1.2 μmoles/hr/mg of protein

**Q.** What about the “Conversion Rate” value ([7]; growth substrate Methylamine) of the same compound?
**A.** 1.0 μmoles/hr/mg of protein

**Q.** What about the “Conversion Rate” value ([7]; growth substrate Methylformate) of the same compound?
**A.** 1.2 μmoles/hr/mg of protein

**Q.** What about the “Conversion Rate” value ([7]; growth substrate Propylamine) of the same compound?
**A.** 0.92 μmoles/hr/mg of protein

**Q.** And the “Conversion Rate” value [8]?
**A.** 0.82 μmoles/hr/mg Protein

**Q.** And the “Conversion Rate” value (Pichia sp. NRRL-Y-11328; growth substrate Ethanol)?
**A.** 1.0 μmoles/hr/mg of protein

**Q.** And the “Conversion Rate” value (Pichia sp. NRRL-Y-11328; growth substrate Methanol)?
**A.** 1.2 μmoles/hr/mg of protein

**Q.** And the “Conversion Rate” value (Pichia sp. NRRL-Y-11328; growth substrate Methylamine)?
**A.** 0.72 μmoles/hr/mg of protein

**Q.** What about the “Conversion Rate” value (Pichia sp. NRRL-Y-11328; growth substrate Methylformate) of the same compound?
**A.** 0.98 μmoles/hr/mg of protein

**Q.** And the “Conversion Rate” value (Pichia sp. NRRL-Y-11328; growth substrate Propylamine)?
**A.** 0.60 μmoles/hr/mg of protein

**Q.** What about the “Conversion Rate” value ([9]; growth substrate Ethanol) of the same compound?
**A.** 1.0 μmoles/hr/mg of protein

**Q.** And the “Conversion Rate” value ([9]; growth substrate Methanol)?
**A.** 1.5 μmoles/hr/mg of protein

**Q.** And the “Conversion Rate” value ([9]; growth substrate Methylamine)?
**A.** 1.2 μmoles/hr/mg of protein

**Q.** And the “Conversion Rate” value ([9]; growth substrate Methylformate)?
**A.** 1.3 μmoles/hr/mg of protein

**Q.** What about the “Conversion Rate” value ([9]; growth substrate Propylamine) of the same compound?
**A.** 0.9 μmoles/hr/mg of protein

**Q.** What about the “Conversion Rates” value [10] of the same compound?
**A.** 0.09 μmoles/hr/mg protein

**Q.** What about the “Conversion Rates” value [11] of the same compound?
**A.** 0.24 μmoles/hr/mg protein

**Q.** What about the “Conversion Rates” value [12] of the same compound?
**A.** 0.08 μmoles/hr/mg protein

**Q.** What about the “Conversion Rates” value [13] of the same compound?
**A.** 1.0 μmoles/hr/mg protein

**Q.** And the “Conversion Rates” value [14]?
**A.** 0.05 μmoles/hr/mg protein

**Q.** And the “Conversion Rates” value [15]?
**A.** 0.07 μmoles/hr/mg protein

**Q.** And the “Conversion Rates” value [16]?
**A.** 0.05 μmoles/hr/mg protein

**Q.** And the “Conversion Rate” value [17]?
**A.** 1.2 μmoles/hr/mg Protein
